Test results taken from patent US10294202B2, “Pyrrolidinones as herbicides” (FMC Corporation, priority 2013, dated 2019).

What was measured:
pigweed = assay: Test A pre-/postemergence herbicide test; format: in vivo, Amaranthus retroflexus; settings: for Plant response rating, Pigweed: 0 to 100 scale
Outline: (§1)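 Seeds in loam–sand blend received preemergence directed soil spray; separately, plants 2–10 cm at one- to two-leaf stage received postemergence spray, both with test chemicals in non-phytotoxic solvent with surfactant. After ~10 days in greenhouse, injury rated visually against untreated controls, 0 (no effect) to 100 (complete control).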

barnyardgrass [1] = assay: Test B flooded paddy test; format: in vivo, Echinochloa crus-galli; settings: Flood, scale of 0 to 100 where 0 is no effect and 100 is complete control
Outline: (§2)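 Scored visually 0–100 (0 no effect, 100 complete control) versus controls after 13 to 15 greenhouse days. Treatment: compound added to paddy water kept 3 cm above soil, on 2-leaf-stage plants.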

ragweed = assay: Test A pre-/postemergence herbicide test; format: in vivo, Ambrosia elatior; settings: for Plant response rating, Ragweed: 0 to 100 scale
Outline: as §1

corn = assay: Test A pre-/postemergence herbicide test; format: in vivo, Zea mays; settings: Postemergence; for Plant response rating, Corn: 125 g ai/ha, 0 to 100 scale, 0 is no effect, 100 is complete control; for Corn plant response rating (0 to 100 scale, 0 is no effect, 100 is complete control): 500 g ai/ha
Outline: as §1

sedge, umbrella = assay: Test B flooded paddy test; format: in vivo, Cyperus difformis; settings: Flood, scale of 0 to 100 where 0 is no effect and 100 is complete control
Outline: as §2

galium = assay: Test A postemergence herbicide test; format: in vivo, Galium aparine; settings: for Plant response rating, Galium: 125 g ai/ha, 0 to 100 scale, 0 is no effect, 100 is complete control; for Galium plant response rating (0 to 100 scale, 0 is no effect, 100 is complete control): 500 g ai/ha
Outline: (§3)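 Potted in loam soil/sand blend; postemergence application at 1–2 leaf stage (2–10 cm). Greenhouse ~10 d. Visual injury vs untreated, 0–100 scale; 100 = complete control.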

ryegrass, Italian = assay: Test A pre-/postemergence herbicide test; format: in vivo, Lolium multiflorum; settings: for Plant response rating, Ryegrass, Italian: 0 to 100 scale
Outline: as §1

wheat = assay: Test A pre-/postemergence herbicide test; format: in vivo, Triticum aestivum; settings: Postemergence; for Plant response rating, Wheat: 125 g ai/ha, 0 to 100 scale, 0 is no effect, 100 is complete control; for Wheat plant response rating (0 to 100 scale, 0 is no effect, 100 is complete control): 500 g ai/ha
Outline: as §1

blackgrass = assay: Test A postemergence herbicide test; format: in vivo, Alopecurus myosuroides; settings: for Plant response rating, Blackgrass: 125 g ai/ha, 0 to 100 scale, 0 is no effect, 100 is complete control; for Blackgrass plant response rating (0 to 100 scale, 0 is no effect, 100 is complete control): 500 g ai/ha
Outline: as §3

ducksalad = assay: Test B flooded paddy test; format: in vivo, Heteranthera limosa; settings: Flood, scale of 0 to 100 where 0 is no effect and 100 is complete control
Outline: as §2

barnyardgrass [2] = assay: Test A pre-/postemergence herbicide test; format: in vivo, Echinochloa crus-galli
Outline: as §1

kochia = assay: Test A pre-/postemergence herbicide test; format: in vivo, Kochia scoparia; settings: for Plant response rating, Kochia: 0 to 100 scale
Outline: as §1

rice = assay: Test B flooded paddy test; format: in vivo, Oryza sativa; settings: Flood, scale of 0 to 100 where 0 is no effect and 100 is complete control
Outline: as §2

giant foxtail = assay: Test A pre-/postemergence herbicide test; format: in vivo, Setaria faberii; settings: for Plant response rating, Foxtail, Giant: 0 to 100 scale
Outline: as §1

[3] = 125 g ai/ha, visual rating, 0 no effect, 100 complete control, approximately 10 days, preemergence
[4] = Postemergence, 125 g ai/ha, 0 is no effect, 100 is complete control
[5] = preemergence, 500 g ai/ha, 0 is no effect and 100 is complete control
[6] = 125 g ai/ha, visual rating, 0 to 100 scale, 0 no effect, 100 complete control, approximately 10 days, preemergence
[7] = Postemergence, 125 g ai/ha, 0 to 100 scale, 0 is no effect, 100 is complete control

SMILES	Plant response rating, Pigweed (pigweed; [3])	Plant response rating, Pigweed (pigweed; [4])	Pigweed plant response rating (0 to 100 scale, 0 is no effect, 100 is complete control) (pigweed; Postemergence, 500 g ai/ha)	Plant response rating, Pigweed (pigweed; [5])	Plant response rating, Ragweed (ragweed; [3])	Plant response rating, Ragweed (ragweed; [4])	Ragweed plant response rating (0 to 100 scale, 0 is no effect, 100 is complete control) (ragweed; Postemergence, 500 g ai/ha)	Plant response rating, Ragweed (ragweed; [5])	Plant response rating, Corn (corn)	Corn plant response rating (0 to 100 scale, 0 is no effect, 100 is complete control) (corn)	Plant response rating, Galium (galium)	Galium plant response rating (0 to 100 scale, 0 is no effect, 100 is complete control) (galium)	Plant response rating, Ryegrass, Italian (ryegrass, Italian; [3])	Plant response rating, Ryegrass, Italian (ryegrass, Italian; [4])	Ryegrass, Italian plant response rating (0 to 100 scale, 0 is no effect, 100 is complete control) (ryegrass, Italian; Postemergence, 500 g ai/ha)	Plant response rating, Ryegrass, Italian (ryegrass, Italian; [5])	Plant response rating, Wheat (wheat)	Wheat plant response rating (0 to 100 scale, 0 is no effect, 100 is complete control) (wheat)	Plant response rating, Blackgrass (blackgrass)	Blackgrass plant response rating (0 to 100 scale, 0 is no effect, 100 is complete control) (blackgrass)	further results
COc1ccc(C2CNC(=O)C2C(=O)Nc2ccccc2F)cc1C(F)(F)F (racemic) [Compound 209]	0	0	0	20	0	0	0	0	0	0	0	0	0	0	20	20	0	0	0	20	Plant response rating, Barnyardgrass (barnyardgrass [1]; 1000 g ai/ha): 45; Plant response rating, Sedge, Umbrella (sedge, umbrella; 1000 g ai/ha): 0; Plant response rating, Ducksalad (ducksalad; 1000 g ai/ha): 95; Plant response rating, Barnyardgrass (barnyardgrass [2]; [6]): 30; Plant response rating, Barnyardgrass (barnyardgrass [2]; [7]): 60; Barnyardgrass plant response rating (0 to 100 scale, 0 is no effect, 100 is complete control) (barnyardgrass [2]; Postemergence, 500 g ai/ha): 80; Plant response rating, Barnyardgrass (barnyardgrass [2]; preemergence, 500 g ai/ha, 0 to 100 scale, 0 is no effect and 100 is complete control): 60; Plant response rating, Kochia (kochia; [3]): 0; Plant response rating, Kochia (kochia; [4]): 0; Kochia plant response rating (0 to 100 scale, 0 is no effect, 100 is complete control) (kochia; Postemergence, 500 g ai/ha): 0; Plant response rating, Kochia (kochia; [5]): 20; Plant response rating, Rice (rice; 1000 g ai/ha): 0; Plant response rating, Foxtail, Giant (giant foxtail; [3]): 50; Plant response rating, Foxtail, Giant (giant foxtail; [4]): 40; Foxtail, Giant plant response rating (0 to 100 scale, 0 is no effect, 100 is complete control) (giant foxtail; Postemergence, 500 g ai/ha): 70; Plant response rating, Foxtail, Giant (giant foxtail; [5]): 90
CS(=O)(=O)c1ccccc1NC(=O)C1C(=O)NCC1c1cccc(C(F)(F)F)c1 (racemic) [Compound 160]	70	60	80	90	70	50	60	80	40	70	60	70	60	0	10	70	0	50	60	70	Plant response rating, Barnyardgrass (barnyardgrass [1]; 500 g ai/ha): 60; Plant response rating, Sedge, Umbrella (sedge, umbrella; 500 g ai/ha): 0; Plant response rating, Ducksalad (ducksalad; 500 g ai/ha): 100; Plant response rating, Barnyardgrass (barnyardgrass [2]; [6]): 80; Plant response rating, Barnyardgrass (barnyardgrass [2]; [7]): 70; Barnyardgrass plant response rating (0 to 100 scale, 0 is no effect, 100 is complete control) (barnyardgrass [2]; Postemergence, 500 g ai/ha): 80; Plant response rating, Barnyardgrass (barnyardgrass [2]; preemergence, 500 g ai/ha, 0 to 100 scale (0 no effect, 100 complete control)): 90; Plant response rating, Kochia (kochia; [3]): 80; Plant response rating, Kochia (kochia; [4]): 70; Kochia plant response rating (0 to 100 scale, 0 is no effect, 100 is complete control) (kochia; Postemergence, 500 g ai/ha): 80; Plant response rating, Kochia (kochia; [5]): 90; Plant response rating, Rice (rice; 500 g ai/ha): 10; Plant response rating, Foxtail, Giant (giant foxtail; [3]): 80; Plant response rating, Foxtail, Giant (giant foxtail; [4]): 80; Foxtail, Giant plant response rating (0 to 100 scale, 0 is no effect, 100 is complete control) (giant foxtail; Postemergence, 500 g ai/ha): 90; Plant response rating, Foxtail, Giant (giant foxtail; preemergence, 500 g ai/ha): 90
